Assays:
Assay type in all cases: cell-based
[1] = tested on: E. coli ESBL 5; test: Broth microdilution MIC (strain enzymes: CTX-M15, TEM-1)
[2] = tested on: K. pneumoniae 329633; test: Broth microdilution MIC (strain enzymes: SHV-5, TEM-1)
[3] = tested on: E. coli 1924; test: Broth microdilution MIC (strain enzymes: TEM-12)
[4] = tested on: K. oxytoca 176877; test: Broth microdilution MIC (strain enzymes: SHV-105)
[5] = tested on: E. coli ESBL 2; test: Broth microdilution MIC (strain enzymes: TEM-1)
[6] = tested on: K. pneumoniae 304487; test: Broth microdilution MIC (strain enzymes: SHV-12,TEM-1)

Q: With `CCC(=O)N[C@H]1Cc2cccc(C(=O)O)c2OB1O` [Compound 2, (R)-2-hydroxy-3-propionamido-3,4-dihydro-2H-benzo[e][1,2]oxaborinine-8-carboxylic acid] as the compound, how does the “MIC of cefixime (CFM)” value ([1]; with inhibitor at 2 μg/mL) read?
A: The value was 1 µg/mL.

Q: What about the “MIC of ceftibuten (CTB)” value ([1]; with inhibitor at 2 μg/mL) of the same compound?
A: The value was 0.125 µg/mL.

Q: What about the “MIC of cefalexin (LEX)” value ([1]; with inhibitor at 4 μg/mL) of the same compound?
A: The value was 2 µg/mL.

Q: And the “MIC of cefdinir (CDR)” value ([1]; with inhibitor at 4 μg/mL)?
A: The value was 2 µg/mL.

Q: What about the “MIC of cefixime (CFM)” value ([1]; with inhibitor at 4 μg/mL) of the same compound?
A: Its value is 0.5 µg/mL.

Q: And the “MIC of ceftibuten (CTB)” value ([1]; with inhibitor at 4 μg/mL)?
A: Its value is 0.125 µg/mL.

Q: And the “MIC of cefalexin (LEX)” value ([2]; with inhibitor at 1 μg/mL)?
A: The value was 0.25 µg/mL.

Q: What about the “MIC of cefdinir (CDR)” value ([2]; with inhibitor at 1 μg/mL) of the same compound?
A: Its value is 0.25 µg/mL.

Q: What about the “MIC of cefixime (CFM)” value ([2]; with inhibitor at 1 μg/mL) of the same compound?
A: Its value is 1 µg/mL.

Q: And the “MIC of ceftibuten (CTB)” value ([2]; with inhibitor at 1 μg/mL)?
A: The value was 0.06 µg/mL.

Q: What about the “MIC of cefalexin (LEX)” value ([2]; with inhibitor at 2 μg/mL) of the same compound?
A: The value was 0.25 µg/mL.

Q: What about the “MIC of cefdinir (CDR)” value ([2]; with inhibitor at 2 μg/mL) of the same compound?
A: Its value is 0.25 µg/mL.

Q: And the “MIC of cefixime (CFM)” value ([2]; with inhibitor at 2 μg/mL)?
A: Its value is 0.5 µg/mL.

Q: What about the “MIC of ceftibuten (CTB)” value ([2]; with inhibitor at 2 μg/mL) of the same compound?
A: The value was 0.06 µg/mL.

Q: What about the “MIC of cefalexin (LEX)” value ([2]; with inhibitor at 4 μg/mL) of the same compound?
A: Its value is 1 µg/mL.

Q: What about the “MIC of cefdinir (CDR)” value ([2]; with inhibitor at 4 μg/mL) of the same compound?
A: Its value is 1 µg/mL.

Q: And the “MIC of cefixime (CFM)” value ([2]; with inhibitor at 4 μg/mL)?
A: Its value is 0.5 µg/mL.

Q: What about the “MIC of ceftibuten (CTB)” value ([2]; with inhibitor at 4 μg/mL) of the same compound?
A: The value was 0.06 µg/mL.

Q: What about the “MIC of cefalexin (LEX)” value ([3]; with inhibitor at 1 μg/mL) of the same compound?
A: The value was 0.5 µg/mL.

Q: And the “MIC of cefdinir (CDR)” value ([3]; with inhibitor at 1 μg/mL)?
A: The value was 0.5 µg/mL.

Q: And the “MIC of cefixime (CFM)” value ([3]; with inhibitor at 1 μg/mL)?
A: The value was 0.5 µg/mL.

Q: And the “MIC of ceftibuten (CTB)” value ([3]; with inhibitor at 1 μg/mL)?
A: The value was 0.125 µg/mL.

Q: What about the “MIC of cefalexin (LEX)” value ([3]; with inhibitor at 2 μg/mL) of the same compound?
A: The value was 0.25 µg/mL.

Q: What about the “MIC of cefdinir (CDR)” value ([3]; with inhibitor at 2 μg/mL) of the same compound?
A: Its value is 0.25 µg/mL.

Q: What about the “MIC of cefixime (CFM)” value ([3]; with inhibitor at 2 μg/mL) of the same compound?
A: Its value is 0.5 µg/mL.

Q: What about the “MIC of ceftibuten (CTB)” value ([3]; with inhibitor at 2 μg/mL) of the same compound?
A: The value was 0.25 µg/mL.

Q: And the “MIC of cefalexin (LEX)” value ([3]; with inhibitor at 4 μg/mL)?
A: Its value is 0.25 µg/mL.

Q: What about the “MIC of cefdinir (CDR)” value ([3]; with inhibitor at 4 μg/mL) of the same compound?
A: Its value is 0.25 µg/mL.

Q: And the “MIC of cefixime (CFM)” value ([3]; with inhibitor at 4 μg/mL)?
A: Its value is 0.25 µg/mL.

Q: And the “MIC of ceftibuten (CTB)” value ([3]; with inhibitor at 4 μg/mL)?
A: The value was 0.125 µg/mL.

Q: And the “MIC of cefalexin (LEX)” value ([4]; with inhibitor at 1 μg/mL)?
A: Its value is 2 µg/mL.

Q: And the “MIC of cefdinir (CDR)” value ([4]; with inhibitor at 1 μg/mL)?
A: Its value is 2 µg/mL.

Q: What about the “MIC of cefixime (CFM)” value ([4]; with inhibitor at 1 μg/mL) of the same compound?
A: The value was 1 µg/mL.

Q: And the “MIC of ceftibuten (CTB)” value ([4]; with inhibitor at 1 μg/mL)?
A: The value was 0.5 µg/mL.

Q: What about the “MIC of cefalexin (LEX)” value ([4]; with inhibitor at 2 μg/mL) of the same compound?
A: Its value is 2 µg/mL.

Q: What about the “MIC of cefdinir (CDR)” value ([4]; with inhibitor at 2 μg/mL) of the same compound?
A: Its value is 2 µg/mL.

Q: What about the “MIC of cefixime (CFM)” value ([4]; with inhibitor at 2 μg/mL) of the same compound?
A: Its value is 0.5 µg/mL.

Q: And the “MIC of ceftibuten (CTB)” value ([4]; with inhibitor at 2 μg/mL)?
A: The value was 0.125 µg/mL.

Q: And the “MIC of cefalexin (LEX)” value ([4]; with inhibitor at 4 μg/mL)?
A: Its value is 1 µg/mL.

Q: And the “MIC of cefdinir (CDR)” value ([4]; with inhibitor at 4 μg/mL)?
A: Its value is 1 µg/mL.

Q: What about the “MIC of cefixime (CFM)” value ([4]; with inhibitor at 4 μg/mL) of the same compound?
A: The value was 0.5 µg/mL.

Q: And the “MIC of ceftibuten (CTB)” value ([4]; with inhibitor at 4 μg/mL)?
A: Its value is 0.25 µg/mL.

Q: What about the “MIC of cefalexin (LEX)” value ([5]; with inhibitor at 1 μg/mL) of the same compound?
A: Its value is 0.5 µg/mL.

Q: What about the “MIC of cefdinir (CDR)” value ([5]; with inhibitor at 1 μg/mL) of the same compound?
A: The value was 0.5 µg/mL.

Q: What about the “MIC of cefixime (CFM)” value ([5]; with inhibitor at 1 μg/mL) of the same compound?
A: Its value is 0.25 µg/mL.

Q: And the “MIC of ceftibuten (CTB)” value ([5]; with inhibitor at 1 μg/mL)?
A: The value was 0.125 µg/mL.

Q: What about the “MIC of cefalexin (LEX)” value ([5]; with inhibitor at 2 μg/mL) of the same compound?
A: The value was 0.5 µg/mL.

Q: And the “MIC of cefdinir (CDR)” value ([5]; with inhibitor at 2 μg/mL)?
A: Its value is 0.5 µg/mL.

Q: What about the “MIC of cefixime (CFM)” value ([5]; with inhibitor at 2 μg/mL) of the same compound?
A: The value was 0.25 µg/mL.

Q: And the “MIC of ceftibuten (CTB)” value ([5]; with inhibitor at 2 μg/mL)?
A: The value was 0.125 µg/mL.

Q: And the “MIC of cefalexin (LEX)” value ([5]; with inhibitor at 4 μg/mL)?
A: The value was 0.25 µg/mL.

Q: What about the “MIC of cefdinir (CDR)” value ([5]; with inhibitor at 4 μg/mL) of the same compound?
A: Its value is 0.25 µg/mL.

Q: What about the “MIC of cefixime (CFM)” value ([5]; with inhibitor at 4 μg/mL) of the same compound?
A: Its value is 0.125 µg/mL.

Q: And the “MIC of ceftibuten (CTB)” value ([5]; with inhibitor at 4 μg/mL)?
A: The value was 0.125 µg/mL.

Q: What about the “MIC of cefalexin (LEX)” value ([6]; with inhibitor at 1 μg/mL) of the same compound?
A: The value was 1 µg/mL.

Q: And the “MIC of cefdinir (CDR)” value ([6]; with inhibitor at 1 μg/mL)?
A: The value was 1 µg/mL.

Q: And the “MIC of cefixime (CFM)” value ([6]; with inhibitor at 1 μg/mL)?
A: The value was 1 µg/mL.

Q: And the “MIC of ceftibuten (CTB)” value ([6]; with inhibitor at 1 μg/mL)?
A: The value was 0.25 µg/mL.

Q: What about the “MIC of cefalexin (LEX)” value ([6]; with inhibitor at 2 μg/mL) of the same compound?
A: The value was 1 µg/mL.

Q: And the “MIC of cefdinir (CDR)” value ([6]; with inhibitor at 2 μg/mL)?
A: Its value is 1 µg/mL.

Q: And the “MIC of cefixime (CFM)” value ([6]; with inhibitor at 2 μg/mL)?
A: The value was 1 µg/mL.

Q: And the “MIC of ceftibuten (CTB)” value ([6]; with inhibitor at 2 μg/mL)?
A: The value was 0.25 µg/mL.

Q: What about the “MIC of cefalexin (LEX)” value ([6]; with inhibitor at 4 μg/mL) of the same compound?
A: Its value is 2 µg/mL.

Q: And the “MIC of cefdinir (CDR)” value ([6]; with inhibitor at 4 μg/mL)?
A: The value was 2 µg/mL.

Q: And the “MIC of cefixime (CFM)” value ([6]; with inhibitor at 4 μg/mL)?
A: The value was 0.5 µg/mL.

Q: What about the “MIC of ceftibuten (CTB)” value ([6]; with inhibitor at 4 μg/mL) of the same compound?
A: The value was 0.25 µg/mL.

Source: patent US12544395B2, “Combination compositions comprising a beta-lactamase inhibitor and uses thereof” (priority 2018, dated 2026)
